These results are taken from US6806077B1 (priority 1997, dated 2004).

For assay [1], the system named is PrPres. The arrangement: species or system C57BL/6 mice. To be noted: mouse, in vivo, ip, 25 mg/kg.
The test system of assay [2] is PrPres. Type of assay: in vivo. To be noted: C57BL/6 mice inoculated i.p. with strain C506M3; AmB 1 mg/kg from tA+15 days; sacrificed at tA+21 or tA+28; Western blot, versus untreated animals.

Like-named read-outs stand apart in the source and are kept apart here.

In the case of dextran sulphate [DS500], in the assay with PrPres [1], the “inhibition of the accumulation of PrPres in the spleen” value was “significant inhibition of the accumulation of PrPres”.

Turning to `C[C@@H]1[C@H](O)[C@@H](C)/C=C/C=C/C=C/C=C/C=C/C=C/C=C/[C@H](O[C@@H]2O[C@H](C)[C@@H](O)[C@H](N)[C@@H]2O)C[C@@H]2O[C@](O)(C[C@@H](O)C[C@@H](O)[C@H](O)CC[C@@H](O)C[C@@H](O)CC(=O)O[C@H]1C)C[C@H](O)[C@H]2C(=O)O` [AmB, amphotericin B], the “inhibition of the accumulation of PrPres in the spleen” value in the assay on PrPres [2] is “significant inhibition of the accumulation of PrPres”.
